Test results published in patent US5814628A, “Benzyl-substituted compounds having dopamine receptor affinity” (Allelix Biopharmaceuticals Inc., priority 1996, dated 1998).

Legend:
[1] = biological target: T1, human D4 receptor (D4.2 sub-type) (Homo sapiens, UniProt P21917, DEL265-296); test: D4 receptor-binding affinity (displacement of 3H-spiperone); details: 3H-spiperone 0.25 nM, HEK 298 cell membranes, Cheng and Prustoff transformation
T1 construct: expressed in transfected cells; host or cells: HEK 298 (human embryonic kidney); homogenate used
T1 sequence (P21917 with tags, fused parts or gaps DEL265-296): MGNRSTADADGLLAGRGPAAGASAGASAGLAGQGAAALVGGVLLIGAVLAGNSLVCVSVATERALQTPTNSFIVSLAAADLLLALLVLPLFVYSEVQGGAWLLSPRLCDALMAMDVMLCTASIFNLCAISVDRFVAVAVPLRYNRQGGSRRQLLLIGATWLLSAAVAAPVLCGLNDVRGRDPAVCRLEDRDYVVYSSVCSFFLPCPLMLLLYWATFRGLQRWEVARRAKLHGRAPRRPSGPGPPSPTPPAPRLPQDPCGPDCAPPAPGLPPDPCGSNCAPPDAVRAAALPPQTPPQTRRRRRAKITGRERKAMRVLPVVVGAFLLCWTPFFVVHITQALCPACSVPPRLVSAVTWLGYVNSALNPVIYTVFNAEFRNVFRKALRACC
Procedure: The potency of the test compound to reduce ^3 H-spiperone binding directly correlated to its binding affinity for the receptor.
The cells were then centrifuged in a Sorval centrifuge for 10 minutes, 5000 rpm (GS3 rotor) and the pellets quickly frozen in liquid nitrogen and stored at -80° C. until used in binding assay.
Concentration of receptor protein was determined using the Pierce BCA assay.
The tubes were vortexed and incubated at room temperature for 90 minutes. The binding reaction was stopped by filtering using a Brandell Cell Harvester. The samples were filtered under vacuum over glass fibre filters (Whatman GF/B) presoaked for 2 hours in 0.3% polyethylenimine (PEI) in 50 mM Tris buffer (pH7.4). The filters were then washed 3 times with 5 mL ice cold 50 mM Tris buffer (pH7.4). Individual filter disks were put in scintillation vials (Biovials, Bechman).
The tubes were vortexed and incubated at room temperature for 90 minutes at which time the binding reaction was stopped by filtering. The filters were washed and counted using the same procedure as in the total binding assay described above to give the non-specific binding value (NSB).
The incubation was started by the addition to 12×75 mm polypropylene tubes 500 μl (50 μg protein) membrane homogenate to a solution of 400 μl incubation buffer, 100 μl (0.25 final conc.) ^3 H-spiperone (90Ci/mmol, Amersham, diluted in borosilicate glass vial to) and […] of test compound that was prepared from 1 mM stock dissolved in DMSO and stored at -20° C. in polypropylene cryogenic storage vials until dilution in incubation buffer in borosilicate glass vials. The tubes were vortexed and incubated at room temperature for 90 minutes at which time the binding reaction was stopped by filtering. The filters were washed and counted using the same procedure as in the total binding assay described above to give the displacement binding value (BD).
IC50 was determined from an inhibition response curve, logit-log plot of %B/B0 vs concentration of test compound.
Ki was calculated by the Cheng and Prustoff transformation: […]
where [L] is the concentration of ^3 H-spiperone used in the assay and KD is the dissociation constant of ^3 H-spiperone determined independently under the same binding conditions.

[2] = system: human D2 receptor (short isoform) relative to human D4 receptor (D4.2 sub-type); test: D4 selectivity: D2 versus D4 receptor binding (displacement of 3H-spiperone); details: D2/D4 ratio, D2 in GH4 C1 cells, D4 in HEK 298 cells
Procedure: The potency of the test compound to reduce ^3 H-spiperone binding directly correlated to its binding affinity for the receptor. […] When used in the assay, cells were thawed on ice for 20 minutes and then 10 mL of incubation buffer (50 mM Tris, 1 mM EDTA, 4 mM MgCI2, 5 mM KCI, 1.5 mM CaCI2, 120 mM NaCI, pH7.4) was added. […] Concentration of receptor protein was determined using the Pierce BCA assay. […] After 16 hours, fresh media was added to allow the cells to recover for 24 hours. The cells were harvested using versene and then centrifuged in a Sorval centrifuge for 10 minutes, at 5000 rpm (GS3 rotor). Pellets were quickly frozen in liquid nitrogen and stored at -80° C. until used in the binding assays. When used in the assay, cells were thawed on ice for 20 minutes. […] The receptor protein concentration was determined using the Pierce BCA assay. […] The tubes were vortexed and incubated at room temperature for 90 minutes. The binding reaction was stopped by filtering using a Brandell Cell Harvester. The samples were filtered under vacuum over glass fibre filters (Whatman GF/B) presoaked for 2 hours in 0.3% polyethylenimine (PEI) in 50 mM Tris buffer (pH7.4). The filters were then washed 3 times with 5 mL ice cold 50 mM Tris buffer (pH7.4). Individual filter disks were put in scintillation vials (Biovials, Bechman). […] The tubes were vortexed and incubated at room temperature for 90 minutes at which time the binding reaction was stopped by filtering. The filters were washed and counted using the same procedure as in the total binding assay described above to give the non-specific binding value (NSB). […] The tubes were vortexed and incubated at room temperature for 90 minutes at which time the binding reaction was stopped by filtering. The filters were washed and counted using the same procedure as in the total binding assay described above to give the displacement binding value (BD). […] IC50 was determined from an inhibition response curve, logit-log plot of %B/B0 vs concentration of test compound.

D4 receptor = details: marketed products, background section; read-out: D4 affinity, Ki value; cited from earlier work
[3] = system: D4 receptor relative to the D2 receptor; details: marketed products, background section; cited from earlier work

Ki [1] [nM] | D2/D4 [2] | Structure (SMILES) | Ki (D4 receptor) [nM] | preference for binding the D4 receptor relative to the D2 receptor [3]
519 | 16.1 | N#Cc1ccccc1CN1CCN(C2=Nc3ccccc3Oc3ccccc32)CC1 [11-[4-(2-cyanobenzyl)-1-piperazinyl]dibenz[b,f][1,4]oxazepine] | – | –
– | – | CN1CCN(C2=Nc3cc(Cl)ccc3Oc3ccccc32)CC1 [isoloxapine] | ~20 | about 10 fold
134 | 21.7 | N#Cc1cccc(CN2CCN(C3=Nc4ccccc4Oc4ccccc43)CC2)c1 [11-[4-(3-cyanobenzyl)-1-piperazinyl]dibenz[b,f][1,4]oxazepine] | – | –
108 | 90.1 | N#Cc1ccc(CN2CCN(C3=Nc4ccccc4Oc4ccccc43)CC2)cc1 [11-[4-(4-cyanobenzyl)-1-piperazinyl]dibenz[b,f][1,4]oxazepine] | – | –
19 | 31.7 | Clc1ccc2c(c1)N=C(N1CCN(Cc3ccccc3)CC1)c1ccccc1O2 [8-Chloro-11-(4-benzyl-1-piperazinyl)-dibenz[b,f][1,4]oxazepine] | – | –
